Reference: ChEMBL document CHEMBL3988442, “University of Dundee, Small-Polar-MMV Screening Library” (2021)

Target: ClpP1P2 (Mycobacterium tuberculosis (strain ATCC 25618 / H37Rv), UniProt P9WPC3+P9WPC5)
Assay: in vitro assay to detect presence of AMC directly proportional to the activity of ClpP1P2. GHDDI collaboration.
Assay type: functional

ClpP1P2, sequence (P9WPC5 whole entry): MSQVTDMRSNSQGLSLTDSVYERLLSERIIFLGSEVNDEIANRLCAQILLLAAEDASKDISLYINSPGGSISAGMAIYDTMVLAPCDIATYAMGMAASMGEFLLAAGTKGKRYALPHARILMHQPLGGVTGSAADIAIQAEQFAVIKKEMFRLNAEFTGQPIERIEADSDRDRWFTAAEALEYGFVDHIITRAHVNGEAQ
ClpP1P2, sequence (P9WPC3 whole entry): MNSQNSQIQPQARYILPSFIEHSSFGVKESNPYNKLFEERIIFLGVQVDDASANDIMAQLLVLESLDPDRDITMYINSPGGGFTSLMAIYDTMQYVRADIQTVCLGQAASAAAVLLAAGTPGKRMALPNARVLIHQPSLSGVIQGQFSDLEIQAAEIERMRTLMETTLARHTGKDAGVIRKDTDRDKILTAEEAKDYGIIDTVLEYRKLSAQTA

Row | SMILES | IC50 [µM]
1 | Cn1ncc2c1CCCN(C(=O)C1CCCC1)C2 | > 100
2 | COCCOc1ccc(CNc2cnc3ccccc3n2)cn1 | > 100
3 | Cn1c(N)c2c(=O)n(C)c(-c3ccc(Cl)cc3Cl)cc2c(C#N)c1=O | > 100
4 | CNC(=O)c1cc2c(nc1NCC(C)C)CCN(S(=O)(=O)C1CC1)CC2 | > 100
5 | CNC(=O)c1cc2c(nc1NC(C)C)CCN(C(=O)NC(C)C)CC2 | > 100
6 | CNC(=O)c1cc2c(nc1NCC1CC1)CCN(S(=O)(=O)C1CC1)CC2 | > 100
7 | CNc1cncc(C2CCN(C(=O)c3cnco3)CC2)n1 | > 100
8 | Cc1cc(C)n(CCNCc2cc(-c3ccccc3)c[nH]c2=O)n1 | > 100
9 | Cc1c(-c2cccs2)nn2c(O)c3c(nc12)CN(C(=O)C1CC1)C3 | > 100
10 | O[C@@H]1C[C@H]2CN(Cc3ccccc3Cl)[C@H](Cc3ccccc3)CN2C1 | > 100
11 | COCCNc1ncc(-c2cccc(OC)c2)c(-c2nccn2C)n1 | > 100
12 | CNc1cnc(CC2COCCN(Cc3ccccc3)C2)cn1 (configuration not stated) | > 100
13 | CNc1cnc(CC2COCCN(Cc3cccc(C)n3)C2)cn1 (configuration not stated) | > 100
14 | CNc1cnc(CC2COCCN(CCOc3ccccc3)C2)cn1 (configuration not stated) | > 100
15 | O=S(=O)(c1ccccc1)N1CCOCC(Cc2cccnc2)C1 (configuration not stated) | > 100
16 | Cn1cc(CN2CCCCC2c2ccc(-c3cccc(F)c3)nc2)cn1 (configuration not stated) | > 100
17 | CC(C)=CCCC1(C)C=Cc2c(cc(C)n(CCC(=O)O)c2=O)O1 (configuration not stated) | > 100
18 | O=C(CO)N1CCC(CCc2ccnc(Nc3cnccn3)c2)CC1 | > 100
19 | Cc1nc(C(=O)N2CCC(c3cc(CCO)n(C)n3)C2)co1 (configuration not stated) | > 100
20 | CC(=O)N1CCC(c2cnc(NC3CCOCC3)cn2)CC1 | > 100
21 | O=C(Nc1cc(CCC2CCN(CCO)CC2)ccn1)c1ccccn1 | > 100
22 | CC(=O)N1CCC(CCc2ccnc(NC(=O)c3ccccn3)c2)CC1 | > 100
23 | Cn1cnc2ccc(NC(=O)CC3CCN(S(C)(=O)=O)CC3)cc21 | > 100
24 | CC(C)(C)c1ccc(OCC(=O)O)c(CN2C[C@H]3C[C@H](O)C[C@H]3C2)c1 | > 100
25 | O=C(c1cc(-c2cccnc2)[nH]n1)N1CCCC(c2cnccn2)C1 (configuration not stated) | > 100

Row | SMILES | IC50 [µM]
26 | O=C1NC2(CCN(CC(=O)N3CCOCC3)CC2)Nc2ccccc21 | > 100
27 | O=C(CN1CCC2(CC1)NC(=O)c1cc(Br)ccc1N2)NC1CC1 | > 100
28 | O=C1NC2(CCN(C(=O)CN3CCOCC3)CC2)Nc2ccc(Cl)cc21 | > 100
29 | O=C1NC2(CCN(CC(=O)N3CCOCC3)CC2)Nc2ccc(Br)cc21 | > 100
30 | COCC(=O)N1CCC(c2cc3nc(C)cc(C(F)(F)F)n3n2)CC1 | > 100
31 | COc1cc2c(cc1CCC(=O)O)CCC2 | > 100
32 | CCN(CC)S(=O)(=O)c1cc2c3c(c1)c(C)cc(=O)n3CC2 | > 100
33 | CCN1CCCC1CNCc1cc2cc(OC)c(OC)cc2[nH]c1=O (configuration not stated) | > 100
34 | CCN1CCCC1CNCc1cc2cc(OC)ccc2[nH]c1=O (configuration not stated) | > 100
35 | CN1CCC(c2nccnc2Nc2cnccn2)CC1 | > 100
36 | O=C1CN(Cc2ccc3ccccc3n2)CCN1C1CCCC1 | > 100
37 | CNC(=O)c1cnn2c(C3CCCN3)ccnc12 (configuration not stated) | > 100
38 | O=C(Cn1cccc2cc(-c3ccc(F)cc3)nc1-2)N1CCC(O)CC1 | > 100
39 | COc1ccc(-c2cc3cccn(CC(=O)N4CCOCC4)c-3n2)cc1 | > 100
40 | Oc1ccc(C2Nc3ccccc3C3=NCCCN32)cc1 (configuration not stated) | > 100
41 | COc1ccc(C2Nc3cc(Cl)ccc3C3=NCCN32)cc1CO (configuration not stated) | > 100
42 | NC(=O)CN1CCC(c2cc(C(F)(F)F)n3ccnc3n2)CC1 | > 100
43 | CC(C)N1CCC(c2cc(C(F)(F)F)n3ccnc3n2)CC1 | > 100
44 | COc1ccc(C2Nc3ccccc3C3=NCCCN32)cc1OC (configuration not stated) | > 100
45 | CCN(CC)c1ccc(NS(=O)(=O)c2cnn(CC)c2)cn1 | > 100
46 | CCN(CC)c1ccc(NS(=O)(=O)c2cnn(C(C)C)c2)cn1 | > 100
47 | CC(C)N(CCC#N)C(=O)c1cnc(-c2ccc3c(c2)OCO3)s1 | > 100
48 | c1ccc2nc(N3CCCC3c3nnc4n3CCCCC4)cnc2c1 (configuration not stated) | > 100
49 | c1cnc2nc(N3CCCC3c3nnc4n3CCCCC4)ccc2n1 (configuration not stated) | > 100
50 | Cc1nc2ccccc2nc1NCc1cccc(OCC2CCCO2)c1 (configuration not stated) | > 100

Row | SMILES | IC50 [µM]
51 | CCN(C(=O)CNc1cc(C)c(F)cc1C(N)=O)C1CC1 | > 100
52 | Cc1cc(NCC(=O)N(C)C)c(C(N)=O)cc1F | > 100
53 | Cc1cc(NCC(=O)N(C)Cc2cccs2)c(C(N)=O)cc1F | > 100
54 | COc1ccc2c(c1)C(=O)N(C)C1(CCN(CC=C(C)C)CC1)N2 | > 100
55 | COc1ccc2c(c1)C(=O)N(C)C1(CCN(CC3CC3)CC1)N2 | > 100
56 | COc1ccc2c(c1)C(=O)N(C)C1(CCN(C(=O)OC(C)(C)C)CC1)N2 | > 100
57 | COCc1ccccc1CNC(=O)CNc1ccccc1C(C)=O | > 100
58 | O=C(NCCCn1cncn1)c1ccc(-c2ccco2)[nH]c1=O | > 100
59 | O=C(NCc1nc2cc(F)ccc2[nH]1)c1ccc[nH]1 | > 100
60 | Cc1nccn1CCCNc1nccnc1C#N | > 100
61 | Cc1nc(N2CCCC2)ccc1NCc1ccccn1 | > 100
62 | CS(=O)(=O)CC1(CNc2cc(C#N)c3cc(Cl)ccc3n2)CC1 | > 100
63 | CCCn1nc2c(cc1=O)CN(CC(=O)N(C)c1nccs1)CC2 | > 100
64 | CC1CCN(C(=O)C2CCN(c3ccc(Cl)cc3C#N)CC2)CC1 | > 100
65 | Cc1ccc2nc(CNc3ccccc3C(=O)NC3CC3)cn2c1 | > 100
66 | N#Cc1ccc(F)c(CN2CCNC(=O)C2c2cccs2)c1 (configuration not stated) | > 100
67 | N#Cc1cccc(OCCN2CCNC(=O)C2c2cccs2)c1 (configuration not stated) | > 100
68 | CN(C(=O)CCc1nc(C2CC2)no1)c1cc(C#N)c2ccccc2n1 | > 100
69 | CNC(=O)c1cc(C)ccc1NCc1cn2cc(C)ccc2n1 | > 100
70 | Cc1cccc2c1NC1(CCCC1)NC2=O | > 100
71 | Cc1cccc2c1NC1(CCOCC1)NC2=O | > 100
72 | Cc1cccc2c1C(=O)NC1(CCOCC1)N2 | > 100
73 | CN(C)C(=O)N1CCN(C(=O)c2ccn3cncc3c2)CC1 | > 100
74 | O=C1C(Nc2ccc3nccnc3n2)CCN1c1ccccc1F (configuration not stated) | > 100
75 | O=C1C(Nc2ccc3nccnc3n2)CCN1c1ccccc1 (configuration not stated) | > 100

Row | SMILES | IC50 [µM]
76 | O=C1CC(Nc2ccc3nccnc3n2)CN1c1ccccc1 (configuration not stated) | > 100
77 | O=C(NCC1CCCOC1)c1ccc(-c2cccs2)[nH]c1=O (configuration not stated) | > 100
78 | CCCC(C)NC(=O)c1ccc(-c2ccco2)[nH]c1=O (configuration not stated) | > 100
79 | CCC(C)NC(=O)c1ccc(-c2ccco2)[nH]c1=O (configuration not stated) | > 100
80 | CCCNC(=O)c1ccc(-c2ccco2)[nH]c1=O | > 100
81 | CC(COCC(F)(F)F)NC(=O)c1ccc(-c2ccco2)[nH]c1=O (configuration not stated) | > 100
82 | CCC(C)(C)NC(=O)c1ccc(-c2ccco2)[nH]c1=O | > 100
83 | CCN(CC)C(=O)CCNc1cncc(-n2nc(C)cc2C)n1 | > 100
84 | Cc1cc(C)n(-c2cncc(NCCNC(=O)C(C)C)n2)n1 | > 100
85 | Cc1cc(C)n(-c2cncc(NCCNC(=O)CC3CCCC3)n2)n1 | > 100
86 | O=C1CCCN1Cc1nnc2n1CCCN(C(=O)c1ccco1)C2 | > 100
87 | CN(C)c1ccnc(-c2ccnc3c2ccn3C)n1 | > 100
88 | COCC(C)N1CCc2onc(-c3ccc(F)c(F)c3)c2C1 (configuration not stated) | > 100
89 | Fc1ccccc1-c1cc(N2[C@@H]3CC[C@H]2CNC3)n2nccc2n1 | > 100
90 | CCOc1ccccc1CC(=O)N1C[C@@H](C(=O)O)[C@H](c2ccncc2)C1 | > 100
91 | CCC[C@@H]1CN(c2cncc(C(=O)N3CCOCC3)n2)C[C@H]1N(C)C | > 100
92 | CC(C)[C@H](Nc1cc(-c2ccncc2)nc2ccnn12)C(N)=O | > 100
93 | Nc1nccc(-c2cccc3ccnn23)n1 | > 100
94 | CC(=O)Nc1ccc2nc(CN(C)Cc3noc(C)n3)ccc2c1 | > 100
95 | Cc1nc(N2CCCC2C(=O)NC(C)(C)CO)nc2ccccc12 (configuration not stated) | > 100
96 | Cn1ccc2c(-c3cc(N)nc(N4CCOCC4)n3)ccnc21 | > 100
97 | Cn1c(Cn2ccnc2)nnc1C1CCN(C(=O)c2cccnc2)CC1 | > 100
98 | Cc1ncsc1CCC(=O)NC1CCN(c2ncccc2C#N)CC1 | > 100
99 | O=C(c1cc(-c2ccco2)nc2c(Cl)cccc12)N1CCS(=O)(=O)CC1 | > 100
100 | N#Cc1c(C2CCOC2)cc(-c2ccc(N3CCCCC3)cc2)nc1N (configuration not stated) | > 100

Row | SMILES | IC50 [µM]
101 | O=S1(=O)CCC(CNc2cc(-c3ccccc3)nc3ccnn23)C1 (configuration not stated) | > 100
102 | CCOc1ccc2[nH]c(=O)c(CN3CCCC(CO)(CO)C3)cc2c1 | > 100
103 | CN(C)S(=O)(=O)N1CC[C@]2(O)CCN(c3cc(C#N)ccn3)C[C@@H]2C1 | > 100
104 | Cc1cccc(-c2cc(-c3c(C)nn(CCO)c3C)c(C#N)c(N)n2)c1 | > 100
105 | COC(=O)[C@@H]1C[C@H](NC(=O)c2cc(=O)[nH]c3ccc(C)cc23)CN1C | > 100
106 | Cc1ccc(C#N)c(N2CCC3(CCCN(C4CCOCC4)C3=O)C2)n1 (configuration not stated) | > 100
107 | Cc1ccc(C2(O)CCN(C(=O)CCn3ccc(=O)[nH]c3=O)CC2)nc1 | > 100
108 | CN(CCN1CCCCC1=O)Cc1cc2cc3c(cc2[nH]c1=O)OCO3 | > 100
109 | CCOc1ccc2[nH]c(=O)c(CN3CCN(S(N)(=O)=O)CC3)cc2c1 | > 100
110 | COc1cc2c(cc1-c1nc3c(cnn3C(C)C)[nH]1)OCO2 | > 100
111 | CNc1cc(C(=O)NCCC2=CSC3=NCCCN23)ccn1 | > 100
112 | CNC(=O)C1CCCN1c1nc(C)c2ccccc2n1 (configuration not stated) | > 100
113 | CC(c1ccccn1)N(C)Cc1cc2cc3c(cc2[nH]c1=O)OCO3 (configuration not stated) | > 100
114 | c1cnc(Nc2cncc(C3CCCN3)n2)cn1 (configuration not stated) | > 100
115 | COc1ccc(-c2cnc(N(C)C)nc2C2CNCCO2)cc1 (configuration not stated) | > 100
116 | COc1ccccc1Cc1cncc(N2CC(C(=O)O)C2)n1 | > 100
117 | CN(C)Cc1cc(C2CCCCN2S(=O)(=O)Cc2ccccc2)nn1C (configuration not stated) | > 100
118 | CN(C)c1ncc(C2Nc3ccccc3C3=NCCCN32)cn1 (configuration not stated) | > 100
119 | CN(C)c1ncc(C2Nc3cc(Cl)ccc3C3=NCCCN32)cn1 (configuration not stated) | > 100
120 | c1cncc(CN2CCC(c3ccc4c(c3)OCO4)CC2)c1 | > 100
121 | CNC(=O)c1cc2c(nc1NCC1CC1)CCN(c1ccncn1)CC2 | > 100
122 | Cc1c[nH]nc1C1CCCN1Cc1ncc[nH]1 (configuration not stated) | > 100
